Target: T1, mPGES-1 (Homo sapiens, UniProt O14684)
T1 construct: made in house; host or cells: E. coli (membrane fraction)
T1 sequence (O14684 1-152): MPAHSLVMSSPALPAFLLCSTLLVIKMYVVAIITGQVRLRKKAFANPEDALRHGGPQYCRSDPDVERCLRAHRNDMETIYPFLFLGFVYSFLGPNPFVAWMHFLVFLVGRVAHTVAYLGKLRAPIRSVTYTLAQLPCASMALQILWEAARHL
Experiment: mPGES-1 inhibition assay (conversion of PGH2 to PGE2, HPLC analysis)
Type: biochemical
Settings: mPGES-1 expressed in E. coli, membrane fraction; room temperature; PGH2 substrate, 60 seconds
Protocol: In the assay mPGES-1 catalyses the reaction where the substrate PGH2 is converted to PGE2. mPGES-1 is expressed in E. coli and the membrane fraction is dissolved in 20 mM NaPi-buffer pH 8.0 and stored at −80° C. […] The stop solution consists of H2O/MeCN (7/3), containing FeCl2 (25 mM) and HCl (0.15 M). The assay is performed at room temperature in 96-well plates.
The following is added chronologically to each well: • 1. 100 uL mPGES-1 in KPi-buffer with glutathione. Total protein concentration: 0.02 mg/mL. • 2. 1 μL inhibitor in DMSO. Incubation of the plate at room temperature for 25 minutes. • 3. 4 μL of a 0.25 mM PGH2 solution. Incubation of the plate at room temperature for 60 seconds. • 4. 100 μL stop solution. • 180 μL per sample is analyzed with HPLC.

IC50 | SMILES
0.39 µM | CC(C)(C)c1ccc(-c2cc3c(s2)c(-c2ccc(C(C)(C)C)cc2)c(C(=O)O)n3Cc2cccc(Cl)c2)cc1 [Example 2, 2,6-Bis-(4-tert-butylphenyl)-4-(3-chlorobenzyl)thieno[3,2-b]pyrrole-5-carboxylic Acid]
1.3 µM | Cc1ccc(-c2cc3c(s2)c(I)c(C(=O)O)n3Cc2cccc(Cl)c2)s1 [Example 4, 4-(3-Chlorobenzyl)-6-iodo-2-(5-methylthien-2-yl)thieno[3,2-b]pyrrole-5-carboxylic Acid]
5.1 µM | Cc1ccc(-n2c(C(=O)O)cc3sc(-c4ccc(OC(C)C)cc4)cc32)cc1[N+](=O)[O-] [Example 28, 2-(4-Isopropoxyphenyl)-4-(4-methyl-3-nitrophenyl)thieno[3,2-b]pyrrole-5-carboxylic Acid]
4.7 µM | CC(C)Oc1ccc(-c2cc3cc(C(=O)O)n(Cc4cccc(Cl)c4)c3s2)cc1 [Example 35, 6-(3-Chlorobenzyl)-2-(4-isopropoxyphenyl)-6H-thieno[2,3-b]pyrrole-5-carboxylic Acid]

Reference: patent publication US20090069384A1, “THIENOPYRROLES USEFUL IN THE TREATMENT OF INFLAMMATION” (BIOLIPOX AB, priority 2005, published 2009)
